pIC50: −log10 of the molar value.
Biological target: T1, Human complement C1s enzyme (Homo sapiens, UniProt P09871)
T1 construct: purified from human serum, Complement Technology, Inc; purchased Complement Technology, Inc; host or cells: human serum (plasma-derived native protein)
T1 sequence (P09871 438-688 limits assumed): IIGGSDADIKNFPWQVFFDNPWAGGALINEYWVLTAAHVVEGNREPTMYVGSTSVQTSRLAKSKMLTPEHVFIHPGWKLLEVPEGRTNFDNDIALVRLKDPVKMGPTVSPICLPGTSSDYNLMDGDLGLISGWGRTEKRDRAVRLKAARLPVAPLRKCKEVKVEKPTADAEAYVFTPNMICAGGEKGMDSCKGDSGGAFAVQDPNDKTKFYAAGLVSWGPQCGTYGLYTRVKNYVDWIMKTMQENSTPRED
T1 sequence (P09871 16-437 partner limits assumed): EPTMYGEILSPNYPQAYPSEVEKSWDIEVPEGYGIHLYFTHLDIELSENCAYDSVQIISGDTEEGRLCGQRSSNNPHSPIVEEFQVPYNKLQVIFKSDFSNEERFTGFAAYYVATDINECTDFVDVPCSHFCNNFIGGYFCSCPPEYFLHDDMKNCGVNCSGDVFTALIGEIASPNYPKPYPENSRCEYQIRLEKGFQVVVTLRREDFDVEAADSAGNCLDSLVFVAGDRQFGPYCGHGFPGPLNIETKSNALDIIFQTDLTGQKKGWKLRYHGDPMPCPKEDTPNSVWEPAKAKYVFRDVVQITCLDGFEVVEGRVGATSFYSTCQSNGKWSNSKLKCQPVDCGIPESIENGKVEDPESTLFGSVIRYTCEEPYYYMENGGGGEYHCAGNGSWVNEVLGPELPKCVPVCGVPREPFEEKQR
Test: Human C1s enzyme assay
Format: biochemical
Conditions: human complement C1s enzyme 1.16 nM, substrate Z-L-Lys-SBzl, A405; read-out: IC50 (Stars)
Procedure: The […] values of the compounds of Table 1 were determined with the human C1s enzyme assay described below. Other standard complement assays are also available.
Human complement C1s enzyme (purified from human serum, Complement Technology, Inc.) at 1.16 nM final concentration was incubated with test compound at various concentrations for 5 min at room temperature in 50 mM Tris, 1 M NaCl, pH 7.5. A synthetic substrate Z-L-Lys-SBzl and DTNB (Ellman's reagent) were added to final concentrations of 100 μM each. Absorbance at 405 nm (A405) was recorded at 30 second intervals for […] using a microplate spectrophotometer. IC values were calculated by nonlinear regression of complement C1s reaction rates as a function of test compound concentration.
[…]; ND indicates a compound for which the IC50 value is not determined.

Compound | pIC50
O=C(Cn1c(-c2ccccc2)ncc(NC(=O)c2coc(-c3cccc(F)c3)n2)c1=O)NCc1cc2cnccc2[nH]1 [Compound 205, N-(1-(2-(((1H-pyrrolo[3,2-c]pyridine-2-yl)methyl)amino)-2-oxoethyl)-6-oxo-2-phenyl-1,6-dihydropyrimidin-5-yl)-2-(3-fluorophenyl)oxazole-4-carboxamide] | > 7.00
O=C(Cn1c(-c2ccccc2)cnc(NC(=O)c2ccc3c(c2)-c2ccccc2C3(F)F)c1=O)NCc1cc2cnccc2[nH]1 [Compound 179, N-(4-(2-(((1H-pyrrolo[3,2-c]pyridin-2-yl)methyl)amino)-2-oxoethyl)-3-oxo-5-phenyl-3,4-dihydropyrazin-2-yl)-9,9-difluoro-9H-fluorene-3-carbox-amide] | > 7.00
O=C(Cn1c(-c2ccccc2)ncc(NCc2ccc3c(c2)C(F)(F)c2ccccc2-3)c1=O)NCc1cc2cnccc2[nH]1 [Compound 112, N-((1H-pyrrolo[3,2-c]pyridin-2-yl)methyl)-2-(5-(((9,9-difluoro-9H-fluoren-2-yl)meth-yl)amino)-6-oxo-2-phenyl-pyrimidin-1(6H)-yl)acetamide] | > 7.00
C[C@H](Nc1cnc(-c2cccs2)n(CC(=O)NCc2cc3cnccc3[nH]2)c1=O)c1ccc2oc3ccccc3c2c1 [Compound 286, (S)-N-((1H-pyrrolo[3,2-c]pyr-idin-2-yl)methyl)-2-(5-((1-(dibenzo[b,d]furan-2-yl)ethyl)-amino)-6-oxo-2-(thiophen-2-yl)pyrimidin-1(6H)-yl)acet-amide] | > 7.00
C[C@@H](Nc1cnc(N2C[C@H]3C[C@@H](C2)C3)n(CC(=O)NCc2cc3cnccc3[nH]2)c1=O)c1ccc2oc3ccccc3c2c1 [Compound 387, N-((1H-pyrrolo[3,2-c]pyridin-2-yl)methyl)-2-(2-((1S,5S)-3-azabicyclo[3.1.1]heptan-3-yl)-5-(((R)-1-(dibenzo[b,d]furan-2-yl)ethyl)amino)-6-oxopyr-imidin-1(6H)-yl)acetamide] | 6.00 to 7.00
O=C(Cn1c(-c2ccccc2)ncc(NC(=O)C2CCC(Oc3ccccc3)CC2)c1=O)NCc1cc2cnccc2[nH]1 (stereo not shown) [Compound 49, N-[6-oxo-1-[2-oxo-2-(1H-pyrrolo[3,2-c]pyridin-2-ylmethylamino)ethyl]-2-phenyl-pyrimidin-5-yl]-4-phenoxy-cyclohexanecarboxamide] | > 7.00
O=C(Cn1c(-c2ccccc2)ncc(NC(=O)c2ccc(-c3nccs3)cc2)c1=O)NCc1cc2cnccc2[nH]1 [Compound 172, N-(1-(2-(((1H-pyrrolo[3,2-c]pyridine-2-yl)methyl)amino)-2-oxoethyl)-6-oxo-2-phenyl-1,6-dihydropyrimidin-5-yl)-4-(thiazol-2-yl)benzamide] | > 7.00
C[C@H](Nc1cnc(C2=CCCCC2)n(CC(=O)NCc2cc3cnccc3[nH]2)c1=O)c1ccc2oc3ccccc3c2c1 [Compound 272, (S)-N-((1H-pyrrolo[3,2-c]pyr-idin-2-yl)methyl)-2-(2-(cyclo-hex-1-en-1-yl)-5-((1-(dibenzo [b,d]furan-2-yl)ethyl)amino)-6-oxopyrimidin-1(6H)-yl)acet-amide] | > 7.00

Next, values leading:

pIC50 | Compound
6.00 to 7.00 | C[C@@H](Nc1cnc(C2CC2)n(CC(=O)NCc2cc3cnccc3[nH]2)c1=O)c1ccc2oc3ccccc3c2c1 [Compound 342, (R)-N-((1H-pyrrolo[3,2-c]pyridin-2-yl)methyl)-2-(2-cyclopropyl-5-((1-(dibenzo [b,d]furan-2-yl)ethyl)amino)-6-oxo-pyrimidin-1(6H)-yl)-acetamide]
> 7.00 | C[C@@H](Nc1cnc(N2CCC3(CC2)OCCO3)n(CC(=O)NCc2cc3cnccc3[nH]2)c1=O)c1ccc2oc3ccccc3c2c1 [Compound 382, (R)-N-((1H-pyrrolo[3,2-c]pyridin-2-yl)methyl)-2-(5-((1-(dibenzo[b,d]furan-2-yl)ethyl)-amino)-6-oxo-2-(1,4-dioxa-8-azaspiro[4.5]decan-8-yl)pyr-imidin-1(6H)-yl)acetamide]
> 7.00 | O=C(Cn1c(N2CCCCC2)cnc(NCc2cc(-c3ccccc3)ns2)c1=O)NCc1cc2cnccc2[nH]1 [Compound 477, N-((1H-pyrrolo[3,2-c]pyridin-2-yl)methyl)-2-(2-oxo-3-(((3-phenylisothiazol-5-yl)methyl)-amino)-6-(piperidin-1-yl)pyr-azin-1(2H)-yl)acetamide]
6.00 to 7.00 | C[C@@H](Nc1cnc(N2CCC(O)CC2)n(CC(=O)NCc2cc3cnccc3[nH]2)c1=O)c1ccc2oc3ccccc3c2c1 [Compound 380, (R)-N-((1H-pyrrolo[3,2-c]pyridin-2-yl)methyl)-2-(5-((1-(dibenzo[b,d]furan-2-yl)ethyl)-amino)-2-(4-hydroxypiperidin-1-yl)-6-oxopyrimidin-1(6H)-yl)acetamide]
> 7.00 | C[C@@H](Nc1cnc(N2CCCC(F)(F)C2)n(CC(=O)NCc2cc3cnccc3[nH]2)c1=O)c1ccc2oc3ccccc3c2c1 [Compound 399, (R)-N-((1H-pyrrolo[3,2-c]pyridin-2-yl)methyl)-2-(5-((1-(dibenzo[b,d]furan-2-yl)ethyl)-amino)-2-(3,3-difluoropiperi-din-1-yl)-6-oxopyrimidin-1(6H)-yl)acetamide]
< 6.00 | O=C(Cn1c(N2CCCCC2)cnc(N[C@H](CO)c2ccc3oc4ccccc4c3c2)c1=O)NCc1cc2cnccc2[nH]1 [Compound 493, (S)—N-((1H-Pyrrolo[3,2-c]pyridine-2-yl)methyl)-2-(3-((1-(dibenzo[b,d]furan-2-yl)-2-hydroxyethyl)amino)-2-oxo-6-(piperidin-1-yl)pyrazin-1(2H)-yl)acetamide]
> 7.00 | Cc1cccc(-c2ncc(N[C@H](C)c3ccc4oc5ccccc5c4c3)c(=O)n2CC(=O)NCc2cc3cnccc3[nH]2)c1F [Compound 434, (R)-N-((1H-pyrrolo[3,2-c]pyridin-2-yl)methyl)-2-(5-((1-(dibenzo[b,d]furan-2-yl)ethyl)amino)-2-(2-fluoro-3-methylphenyl)-6-oxopyr-imidin-1(6H)-yl)acetamide]
> 7.00 | O=C(Cn1c(-c2ccccc2)ncc(NCC2CCC(c3ccccc3)CC2)c1=O)NCc1cc2cnccc2[nH]1 (stereo not shown) [Compound 303, N-((1H-pyrrolo[3,2-c]pyridine-2-yl)methyl)-2-(6-oxo-2-phenyl-5-(((4-phenylcyclohexyl)methyl)amino)pyrimidin-1(6H)-yl)acetamide]
> 7.00 | O=C(Cn1c(-c2ccccc2F)ncc(N[C@H](CF)c2ccc3oc4ccccc4c3c2)c1=O)NCc1cc2cnccc2[nH]1 (single isomer, unassigned) [Compound 375, (S*)—N-((1H-pyrrolo[3,2-c]pyridine-2-yl)methyl)-2-(5-((1-(dibenzo[b,d]furan-2-yl)-2-fluoroethyl)amino)-2-(2-fluorophenyl)-6-oxopyrimidin-1(6H)-yl)acetamide]
> 7.00 | O=C(Cn1c(N2CCOCC2)ncc(NC(=O)c2ccc(Oc3ccccc3)cc2)c1=O)NCc1cc2cnccc2[nH]1 [Compound 410, N-(1-(2-(((1H-pyrrolo[3,2-c]pyridin-2-yl)methyl)amino)-2-oxoethyl)-2-morpholino-6-oxo-1,6-dihydropyrimidin-5-yl)-4-phenoxybenzamide]
6.00 to 7.00 | C[C@@H]1CN(c2ncc(N[C@H](C)c3ccc4oc5ccccc5c4c3)c(=O)n2CC(=O)NCc2cc3cnccc3[nH]2)C[C@@H](C)O1 [Compound 355, N-((1H-pyrrolo[3,2-c]pyridin-2-yl)methyl)-2-(5-(((R)-1-(dibenzo[b,d]furan-2-yl)ethyl)-amino)-2-((2R,6R)-2,6-dimeth-ylmorpholino)-6-oxopyrimidin-1(6H)-yl)acetamide]
